In PubChem BioAssay (NCI):
Values joined by “and” are separate entries in the source; they are usually repeats but may differ in a detail not shown here. Equal entries are not always repeated.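 Each compound was tested at five concentrations against cells in 96-well plates for 48 hours. GI50 = concentration required for 50% inhibition of growth. TGI marks complete inhibition of growth.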

Tests used:
Experiment in all cases: NCI anticancer screen, dose series, 48 h
MOLT-4 leukemia = tested on: MOLT-4 leukemia
TK-10 renal = tested on: TK-10 renal
SK-MEL-2 melanoma = tested on: SK-MEL-2 melanoma
IGROV1 ovarian = tested on: IGROV1 ovarian
T-47D breast = tested on: T-47D breast
SW-620 colon = tested on: SW-620 colon

Compound	GI50 (MOLT-4 leukemia)	TGI (MOLT-4 leukemia)	GI50 (TK-10 renal)	TGI (TK-10 renal)	GI50 (SK-MEL-2 melanoma)	TGI (SK-MEL-2 melanoma)	GI50 (IGROV1 ovarian)	TGI (IGROV1 ovarian)	GI50 (T-47D breast)	TGI (T-47D breast)	GI50 (SW-620 colon)	TGI (SW-620 colon)
CN(C)c1ccc2nc3ccc(=[N+](C)C)cc-3sc2c1	1.11 µM and 0.934 µM	> 27.6 µM and 15.4 µM	3.98 µM and 1.42 µM	16.1 µM and 17.2 µM	1.44 µM and 0.544 µM	3.68 µM and 13.6 µM	1.18 µM and 2.03 µM	11.5 µM and 6.47 µM	0.36 µM and 0.558 µM	3.5 µM and 12.7 µM	0.344 µM and 0.657 µM	13.5 µM and 19.1 µM
O=C1c2c(O)cccc2C(C2OC(CO)C(O)C(O)C2O)c2cc(CO)cc(O)c21 (stereo not drawn)	–	> 100 µM	–	> 100 µM	–	> 100 µM	–	> 100 µM	–	> 100 µM	–	> 100 µM
COC(=O)c1cc2ccc(OC(C)=O)c(OC(C)=O)c2cn1	2.22 µM	6.54 µM and 4.28 µM	–	34.9 µM	–	36.7 µM	–	33.9 µM	–	–	13.4 µM	31.9 µM
O=c1nc2oc3ccc4ccccc4c3cc-2s1	1.81 µM	> 100 µM	> 25.4 µM	> 100 µM	3.79 µM	> 100 µM	10.2 µM	> 100 µM	3.51 µM	> 100 µM	1.05 µM	> 100 µM
C=C1C(=O)OC2C1C(OC(=O)/C(C)=C/C)CC(O)(CCl)C1C(O)C3OC3(C)C21O (stereo not drawn)	–	> 50 µM	–	> 50 µM	–	> 50 µM	–	> 50 µM	–	> 50 µM	–	34.1 µM
C=C(CO[Si](C)(C)C(C)(C)C)C(C)=O	–	> 21.2 µM	–	> 100 µM	–	54.7 µM	–	> 69.7 µM	–	56.1 µM	–	38.9 µM
O=C(Nc1ccc(Cl)cc1)Nc1ccc(Nc2nncc3ccccc23)cc1	2.09 µM	6.36 µM	5.03 µM	24.4 µM	2.7 µM	7.7 µM	2.52 µM	30.7 µM	1.03 µM	5.35 µM	3.16 µM	18.6 µM
CN(C)c1ccc2c(c1)OC(N)=C(C#N)C2c1ccc2c(c1)CCO2 (stereo not drawn)	0.3 µM	32.4 µM	15.9 µM	> 100 µM	0.0962 µM	24.7 µM	0.326 µM	> 100 µM	–	56.4 µM	< 0.0294 µM	> 100 µM
C/C=C(/COC(C)=O)C(=O)OC1C=C(C=O)C(C)(C)C=C1C (stereo not drawn)	–	–	–	> 100 µM	–	> 100 µM	–	> 100 µM	–	> 100 µM	–	> 100 µM
COc1ccc(/C=C2\CCCC3=C2NC(N)=NC3c2ccc(OC)c(OC)c2)cc1OC (stereo not drawn)	4.04 µM	> 100 µM	4.68 µM	27.9 µM	9.59 µM	81.9 µM	28.9 µM	> 100 µM	6.61 µM	> 60.5 µM	4.58 µM	> 50.3 µM
NC(=S)N/N=C/c1ncccc1N	1.04 µM	44.8 µM and > 10 µM	50.5 µM	> 100 µM	75.7 µM	> 100 µM	0.807 µM	> 100 µM	1.92 µM	23.2 µM and > 10 µM	1.45 µM	> 48.4 µM
CC[C@H](CO)Nc1nc(NCc2ccccc2)n2ncc(C(C)C)c2n1	2.18 µM	9.46 µM	2 µM	10.9 µM	1.47 µM	6 µM	0.782 µM	> 100 µM	2.48 µM	13.3 µM	1.38 µM	5.56 µM
CCCCN(CCCC)c1ccc(C(=N)c2ccc(N(CCCC)CCCC)cc2)cc1	0.604 µM	2.14 µM	0.453 µM	1.53 µM	0.387 µM	1.31 µM	1.04 µM	2.66 µM	0.353 µM	1.39 µM	0.306 µM	1.29 µM
CCN(CC)Cc1ccc(Nc2nccc(-c3cnn4ncccc34)n2)cc1	0.0388 µM	0.144 µM	0.0236 µM	0.188 µM	0.0208 µM	0.0704 µM	0.0275 µM	> 20.8 µM	0.0542 µM	6.6 µM	0.0136 µM	> 9.07 µM
NC(=O)c1c(NC(=O)c2ccc3c(c2)OCO3)sc2c1CCC(=O)C2	–	–	3.32 µM	> 100 µM	–	–	–	–	0.592 µM	3.81 µM	–	–
O=C(Nc1cccc(NC(=O)Nc2cc(C(F)(F)F)ccc2Cl)c1)Nc1cc(C(F)(F)F)ccc1Cl	5.19 µM	> 100 µM	2.57 µM	11.5 µM	2.53 µM	7.33 µM	3.52 µM	18.8 µM	0.407 µM	11.4 µM	3.28 µM	> 100 µM

Compound	GI50 (MOLT-4 leukemia)	TGI (MOLT-4 leukemia)	GI50 (TK-10 renal)	TGI (TK-10 renal)	GI50 (SK-MEL-2 melanoma)	TGI (SK-MEL-2 melanoma)	GI50 (IGROV1 ovarian)	TGI (IGROV1 ovarian)	GI50 (T-47D breast)	TGI (T-47D breast)	GI50 (SW-620 colon)	TGI (SW-620 colon)
CCCOC(=O)N1CCN(/[N+]([O-])=N/Oc2ccc([N+](=O)[O-])cc2[N+](=O)[O-])CC1	2.35 µM	> 100 µM	3.87 µM	14.9 µM	2.71 µM	7.78 µM	1.3 µM	4.05 µM	–	–	–	–
O=C(COc1ccc(/C=C2\Oc3ccccc3C2=O)cc1)Nc1nc2c(s1)CCCC2	–	–	26.2 µM	> 87.6 µM	4.87 µM	50.2 µM	0.0164 µM	0.0361 µM	48.4 µM	> 100 µM	4.07 µM	> 100 µM
CC1(C)[C@@H](OC(N)=O)[C@H]2O[C@H]2[C@]2(CO)[C@H]3CC[C@]4(C)[C@@H](c5ccc(=O)oc5)[C@@H](Cl)C[C@]4(O)C3=CC[C@@H]12	0.00519 µM	0.0144 µM	0.00555 µM	0.015 µM	0.00818 µM	0.033 µM	0.0116 µM	0.0938 µM	0.0076 µM	0.0333 µM	0.00835 µM	0.0279 µM
COc1cc(C(=O)NC2CCN(C)CC2)c(F)cc1Nc1ncc2c(n1)N(C1CCCC1)CC(F)(F)C(=O)N2C	0.0171 µM	2.53 µM	–	12.6 µM	< 0.01 µM	3.4 µM	< 0.0217 µM	14.5 µM	< 0.0315 µM	13 µM	< 0.01 µM	11.5 µM
COc1ccc(/C=C2\S/C(=N/Nc3nc(-c4ccccc4)cs3)NC2=O)cc1OC	–	20.6 µM	–	59.4 µM	–	47.5 µM	–	44.2 µM	–	–	–	> 100 µM
O=C(Nc1ccc(Cl)c(Cl)c1)O/N=C\c1c(Cl)ccc([N+](=O)[O-])c1Cl	2.23 µM	5.46 µM	–	–	2.34 µM	4.98 µM	2.08 µM	4.57 µM	0.778 µM	3.54 µM	–	–
COc1ccc2c(c1)C(=O)c1c-2c(N(C)C)nc2ccccc12	> 100 µM	> 100 µM	88.9 µM	> 100 µM	> 100 µM	> 100 µM	> 100 µM	> 100 µM	> 100 µM	> 100 µM	> 100 µM	> 100 µM
CC1=C(CO)C(=O)O[C@@H]([C@@H](C)[C@H]2CC[C@H]3[C@@H]4C[C@@H](O)[C@@]5(O)CC=CC(=O)[C@]5(C)[C@H]4CC[C@]23C)C1	–	> 100 µM	–	> 100 µM	–	> 100 µM	–	31.6 µM	–	> 100 µM	–	47.4 µM
O=C(/C=C/c1ccc([N+](=O)[O-])cc1)c1ccc2c3c(cccc13)CC2	1.27 µM	11.3 µM	31.4 µM	> 75 µM	> 100 µM	> 100 µM	4.36 µM	53.2 µM	1.57 µM	> 24.8 µM	2.34 µM	6.62 µM
COc1ccc(C(=O)c2cc3c(N)c(C(=O)Nc4cccc5ccccc45)sc3nc2C)cc1	0.308 µM	> 50 µM	> 50 µM	> 50 µM	> 50 µM	> 50 µM	0.268 µM	> 50 µM	0.355 µM	> 50 µM	0.203 µM	> 50 µM
CC(C)(O)CC(=O)NCCn1ccc2ncnc(Nc3ccc(Oc4cccc(C(F)(F)F)c4)c(Cl)c3)c21	3.54 µM	> 10 µM	0.363 µM	> 10 µM	8.66 µM	> 10 µM	1.26 µM	> 10 µM	0.641 µM	> 10 µM	3.32 µM	> 10 µM
CCc1ccc(NC(=O)COC(=O)c2cc([N+](=O)[O-])ccc2Sc2nnnn2C)cc1	20.3 µM	81.6 µM	46.4 µM	> 100 µM	23.3 µM	> 100 µM	24.3 µM	95.7 µM	18.5 µM	82.4 µM	10.9 µM	31.5 µM
Cc1ccc(CNc2c3ccccc3nc3cc(NC(=O)CCN4CCCC4)ccc23)cc1	0.316 µM	1.32 µM	1.23 µM	2.85 µM	1.69 µM	3.23 µM	–	–	0.751 µM	3.02 µM	0.413 µM	1.58 µM
COc1cc([C@H]2OC[C@H]3[C@@H]2CO[C@@H]3c2cc(OC)c3c(c2)OCO3)cc(OC)c1OC	–	–	–	> 100 µM	–	> 100 µM	–	> 100 µM	–	> 100 µM	–	> 100 µM
Nc1[nH]nc2nc(-c3cccs3)cc(C(F)(F)F)c12	–	–	> 19.2 µM	> 25 µM	> 22.3 µM	> 25 µM	> 25 µM	> 25 µM	> 25 µM	> 25 µM	> 25 µM	> 25 µM
